Experimental data as given in paper PMC5344255, “Design, Synthesis and Biochemical Evaluation of Novel Selective Estrogen Receptor Ligand Conjugates Incorporating an Endoxifen-Combretastatin Hybrid Scaffold” (Biomedicines, 2016).

Key:
[1] = system: MCF-7 human breast cancer cells; test: MTT assay for antiproliferative effects in MCF-7; assay type: cell-based
Method: (§1) The human breast carcinoma cell line, MCF-7, was purchased from the European Collection of Animal Cell Cultures (ECACC). The cells were maintained in MCF-7 complete medium; consisting of Eagle’s Minimum Essential Medium (MEM) supplemented with 10% (v/v) Foetal Bovine Serum (FBS), 2 mM L-glutamine, 100 μg/mL penicillin/streptomycin and 1% (v/v) non-essential amino acids. Cell cultures were maintained at 37 °C under a humidified atmosphere of 5% CO2/95% O2. The human breast carcinoma cell line, MDA, was purchased from the European Collection of Animal Cell Cultures (ECACC). The cells were maintained in MDA complete medium; consisting of Dulbecco’s Modified Eagle’s Medium (D-MEM) supplemented with 10% (v/v) Foetal Bovine Serum (FBS), 2 mM L-glutamine, 100 μg/mL penicillin/streptomycin. Cell cultures were maintained at 37 °C under a humidified atmosphere of 5% CO2/95% O2. The MTT assay was performed according to the reported protocol. The tetrazolium salt, 3-(4,5-dimethylthiazol-2-yl)-2,5-diphenyltetrazolium bromide (MTT) is taken up only by metabolically active cells and cleaved to form a formazan dye by mitochondrial dehydrogenases. Assays where repeated in three experiments performed in triplicate (unless otherwise stated) and reported results represent the mean value ± standard error mean. Graphs of percentage cell viability versus concentration of the subject compound were processed using PRISM [31].

[2] = system: MDA-MB-231 human breast cancer cells; test: MTT assay for antiproliferative effects in MDA-MB-231; assay type: cell-based; details: MDA-MB-231, MTT assay
Method: as §1, with “Cell cultures were maintained at 37 °C under a humidified atmosphere of 5% CO2/95% O2.” left out, “Assays where repeated in three experiments performed in triplicate (unless otherwise stated) and reported results represent the mean value ± standard error mean.” left out

[3] = system: MCF-7 human breast cancer cells; test: Lactate dehydrogenase (LDH) cytotoxicity assay in MCF-7; assay type: cell-based; details: % cell lysis at 10 µM
Method: (§2) In this assay, the release of cytoplasmic lactate dehydrogenase (LDH) is used as a measure of cell lysis. MCF-7 and MDA-MB-231 cells were seeded at a density of 1 × 10^4 cells/well in a 96-well plate and incubated for 24 h. The cells were then dosed with 2 μL volumes of the test compounds, over the concentration range 1 nM–50 μM. Cytotoxicity was determined using the CytoTox 96 nonradioactive cytotoxicity assay (Promega, Madison, WI, USA) following the manufacturer’s protocol.

[4] = HPLC stability study in phosphate buffer; assay type: physicochemical; details: pH values in the range 4–9
Method: Analytical high-performance liquid chromatography (HPLC) stability studies were performed using a Symmetry® column (C18, 5 µm, 4.6 × 150 mm), a Waters 2487 Dual Wavelength Absorbance detector, a Waters 1525 binary HPLC pump and a Waters 717 plus Autosampler (Waters Corporation, Milford, MA, USA). Samples were detected at wavelength of 254 nm. All samples were analysed using acetonitrile (80%):water (20%) as the mobile phase over 10 min and a flow rate of 1 mL/min. Stock solutions are prepared by dissolving 5mg of compound in 10 mL of mobile phase. Phosphate buffers at the desired pH values (4, 7.4, and 9) were prepared in accordance with the British Pharmacopoeia monograph 2015. 30 µL of stock solution was diluted with 1 mL of appropriate buffer, shaken and injected immediately. Samples were withdrawn and analysed at time intervals of t = 0 min, 5 min, 30 min, 60 min, 90 min, 120 min, 24 h and 48 h.

[5] = system: MDA-MB-231 human breast cancer cells; test: Lactate dehydrogenase (LDH) cytotoxicity assay in MDA-MB-231; assay type: cell-based; details: % cell lysis at 10 μM
Method: as §2

[6] = system: Ishikawa cell line of human endometrial adenocarcinoma cells; test: Ishikawa assay, estrogen stimulation of alkaline phosphatase activity; assay type: cell-based
Method: The Ishikawa assay is used to measure estrogen stimulation of alkaline phosphatase enzyme activity (AlkP) by the Ishikawa cell line of human endometrial adenocarcinoma cells. The Ishikawa assay provides a measure of the agonist activity of a compound. […] The assay was carried out following the method of Littlefield et al.. The batch of Ishikawa cells were obtained as a gift from Professor R. Hochberg—who developed the alkaline phosphatase assay in Yale University, CT, USA.
The Ishikawa assay is used to measure estrogen stimulation of alkaline phosphatase enzyme activity (AlkP) by the Ishikawa cell line of human endometrial adenocarcinoma cells. […] The conjugate was dosed in duplicate.

[7] = Homo sapiens, MCF7, MCF-7, MTT assay, mean of at least three experiments in triplicate

| IC50 [1, 7] [nM] | melting point [°C] | IC50 [2] [nM] | Structure (SMILES) | % Cell Death at 10 μM [3] [%] | % Cell Death at 10 μM [5] [%] | other results |
| --- | --- | --- | --- | --- | --- | --- |
| > 50000 | 211 to 213 |  | COc1cc(/C(=C\c2ccc(F)cc2)C(=O)O)cc(OC)c1OC [Compound 18, (E)-3-(4-Fluorophenyl)-2-(3,4,5-trimethoxyphenyl)acrylic acid] |  |  |  |
| 15300 | 238 to 240 |  | COc1cc(/C(=C\c2ccc3ccccc3c2)C(=O)O)cc(OC)c1OC [Compound 22, (E)-3-Naphthalen-2-yl-2-(3,4,5-trimethoxyphenyl)acrylic acid] |  |  |  |
| > 50000 | 106 to 108 |  | COc1ccc(/C(=C\c2cc(OC)c(OC)c(OC)c2)C(=O)N2CCCCC2)cc1 [Compound 47, (E)-2-(4-Methoxyphenyl)-1-(piperidin-1-yl)-3-(3,4,5-trimethoxyphenyl)prop-2-en-1-one] |  |  |  |
| 10600 | 194 to 196 |  | COc1cc(/C(=C\c2ccc(SC)cc2)C(=O)O)cc(OC)c1OC [Compound 20, (E)-3-(4-Methylsulfanylphenyl)-2-(3,4,5-trimethoxyphenyl)acrylic acid] |  |  |  |
| < 10000 | 199 to 202 |  | COc1ccc(/C=C(/C(=O)O)c2cc(OC)c(OC)c(OC)c2)cc1N [Compound 16, (E)-3-(3-Amino-4-methoxyphenyl)-2-(3,4,5-trimethoxyphenyl)acrylic acid] |  |  | IC50 ([1]; MCF-7, MTT assay, mean of at least three experiments in triplicate): 6700 nM |
| 26100 | 190 to 193 |  | COc1cc(/C(=C\c2ccc(C)cc2)C(=O)O)cc(OC)c1OC [Compound 19, (E)-3-p-Tolyl-2-(3,4,5-trimethoxyphenyl)acrylic acid] |  |  |  |
| 2350 |  | > 50000 | CCC(=C(c1ccc(O)cc1)c1ccc(OCCN(C)C(=O)/C(=C/c2ccc(Br)cc2)c2cc(OC)c(OC)c(OC)c2)cc1)c1ccc(O)cc1 (mixture of isomers) [Compound 42, (E)-N-(2-{4-[(E/Z)-1,2-Bis-(4-hydroxyphenyl)but-1-enyl]phenoxy}ethyl)-3-(4-bromophenyl)-N-methyl-2-(3,4,5-trimethoxyphenyl)acrylamide] | 7 | 9 |  |
| 1030 |  | > 50000 | CCC(=C(c1ccc(O)cc1)c1ccc(OCCN(C)C(=O)/C(=C/c2ccc(Br)cc2)c2cc(OC)c(OC)c(OC)c2)cc1)c1ccccc1 (mixture of isomers) [Compound 41, (E)-3-(4-Bromophenyl)-N-(2-{4-[(E/Z)-1-(4-hydroxyphenyl)-2-phenylbut-1-enyl]phenoxy}ethyl)-N-methyl-2-(3,4,5-trimethoxyphenyl)acrylamide] | 5 | 0 |  |
| > 50000 | 227 to 230 |  | COc1cc(/C(=C\c2ccc(Br)cc2)C(=O)O)cc(OC)c1OC [Compound 17, (E)-3-(4-Bromophenyl)-2-(3,4,5-trimethoxyphenyl)acrylic Acid] |  |  |  |

The remaining lines, values behind:

| Structure (SMILES) | IC50 [1, 7] [nM] | melting point [°C] | IC50 [2] [nM] | % Cell Death at 10 μM [3] [%] | % Cell Death at 10 μM [5] [%] | other results |
| --- | --- | --- | --- | --- | --- | --- |
| CCC(=C(c1ccc(O)cc1)c1ccc(OCCN(C)C(=O)/C(=C/c2cc(OC)c(OC)c(OC)c2)c2ccc(OC)cc2)cc1)c1ccccc1 (mixture of isomers) [Compound 31, (E)-N-(2-{4-[(E/Z)-1-(4-Hydroxyphenyl)-2-phenylbut-1-enyl]phenoxy}ethyl)-2-(4-methoxyphenyl)-N-methyl-3-(3,4,5-trimethoxyphenyl) acrylamide] | 2080 |  | 51000 | 1 | 0 | half-life at 14.6 µg/mL [4]: > 24 h |
| CCC(=C(c1ccc(O)cc1)c1ccc(OCCN(C)C(=O)/C(=C/c2ccc(OC)c(O)c2)c2cc(OC)c(OC)c(OC)c2)cc1)c1ccccc1 (mixture of isomers) [Compound 27, (E)-3-(3-Hydroxy-4-methoxyphenyl)-N-(2-{4-[(E/Z)-1-(4-hydroxyphenyl)-2-phenylbut-1-enyl]phenoxy}ethyl)-N-methyl-2-(3,4,5-trimethoxyphenyl) acrylamide] | 33 |  | 2670 | 10 | 17 | IC50 ([1]; Homo sapiens, MCF7, MCF-7, MTT assay, values in nM): 0.033 nM; half-life at 14.6 µg/mL [4]: > 24 h |
| CC/C(=C(\c1ccccc1)c1ccc(OCCN(C)C)cc1)c1ccccc1 [Tamoxifen, reference compound] |  |  |  |  | 0 | estrogenic activity (alkaline phosphatase stimulation) ([6]; compound dosed individually): displays some estrogenic activity at higher concentrations; estrogen stimulation (alkaline phosphatase) in mixture with estradiol ([6]; dosed with 1 nM estradiol spike): estrogen stimulation at low concentration while a reduction occurs as the concentration of Tamoxifen is increased |
| CCC(=C(c1ccc(O)cc1)c1ccc(OCCN(C)C(=O)/C(=C/c2ccc(OC)c(F)c2)c2cc(OC)c(OC)c(OC)c2)cc1)c1ccccc1 (mixture of isomers) [Compound 43, (E)-3-(3-Fluoro-4-methoxyphenyl)-N-(2-{4-[(E/Z)-1-(4-hydroxyphenyl)-2-phenylbut-1-enyl]phenoxy}ethyl)-N-methyl-2-(3,4,5-trimethoxyphenyl) acrylamide] | 180 |  | 30300 | 2 | 0 |  |
| CCC(=C(c1ccc(O)cc1)c1ccc(OCCN(C)C(=O)/C(=C/c2ccc(OC)cc2)c2cc(OC)c(OC)c(OC)c2)cc1)c1ccccc1 (mixture of isomers) [Compound 29, (E)-N-(2-{4-[(E/Z)-1-(4-Hydroxyphenyl)-2-phenylbut-1-enyl]phenoxy}-ethyl)-3-(4-methoxyphenyl)-N-methyl-2-(3,4,5-trimethoxyphenyl)acrylamide] | 87 |  | 30600 | 12 | 2 |  |
| CCC(=C(c1ccc(O)cc1)c1ccc(OCCN(C)C(=O)/C(=C/c2ccc3ccccc3c2)c2cc(OC)c(OC)c(OC)c2)cc1)c1ccccc1 (mixture of isomers) [Compound 35, (E)-N-(2-{4-[(E/Z)-1-(4-Hydroxyphenyl)-2-phenylbut-1-enyl]phenoxy}ethyl)-N-methyl-3-naphthalen-2-yl-2-(3,4,5-trimethoxyphenyl) acrylamide] | 1510 |  | 2160 | 0 | 0 |  |
| CCC(=C(c1ccc(O)cc1)c1ccc(OCCN(C)C(=O)/C(=C/c2ccc(OC)c(F)c2)c2cc(OC)c(OC)c(OC)c2)cc1)c1ccc(O)cc1 (mixture of isomers) [Compound 44, (E)-N-(2-{4-[(E/Z)-1,2-Bis-(4-hydroxyphenyl)but-1-enyl]phenoxy}ethyl)-3-(3-fluoro-4-methoxyphenyl)-N-methyl-2-(3,4,5-trimethoxyphenyl)acrylamide] | 194 |  | 1850 | 10 | 14 |  |
